Patent US4775692A, “2,5,6,7-tetranor-4,8-inter-m-phenylene PGI2 derivatives” (Toray Industries, Inc., priority 1986, dated 1988)
Converted amounts (≈) assume the structure as drawn. Like-named read-outs stand apart in the source and are kept apart here.

Tests used:
corpus of stomach = test: Gastric cytoprotection effect (lesion length / ulcer index after oral 0.2N NaOH); format: in vivo; conditions: 1 h, 30 min before oral 0.2N NaOH, lesion measured one hour later, read-out: Gastric cytoprotection effect ED50 (dose reducing the sore to 50% of control)
Source text: Gastric cytoprotection effect
Gastric cytoprotection effect was studied according to the method by A. Robert (Gastroenterology, 77(3), 443, (1979)). Thirty min. after oral administration of the compound according to the invention, 0.2N NaOH was orally applied to the animals.
One hour later, the animals were killed under anesthesia by chloroform. The stomach was removed and fixed in a solution of 5% formalin. After fixation, the stomach was cut along the greater curvature. A total length of the lesion appearing on the corpus of stomach was then measured and served as an ulcer index.
The dose of the compound which may reduce the sore to 50% of that of the control was designated as ED50.
The gastric cytoprotection effects of the compounds according to the invention, which is thus represented by ED50, are summarized in Table 1.

gastric acid secretion [1] = test: Inhibiting effect of gastric acid secretion, pylorus-ligated rat (Shay); format: in vivo; conditions: pylorus ligation, injected into duodenum, 5 hours
Method: (§1) Inhibiting effect of gastric acid secretion
Under anesthesia by ether, the abdomen of the rat was incised in its median and a pylorus was ligated with silk thread according to Shay (Gastroenterology 5, 43 (1945)). Simultaneously, the compound was injected into a duodenum of the rat and then the incision was closed.
Five hours later, the median-incision of the abdomen was again performed and the esophargus was ligated and then the whole stomach was removed.
The stomach was cut along a greater curvature and the contents thereof was transferred into a graduated centrifuge tube. After centrifugation at 3,000 rpm for 10 min., a volume of a gastric juice was measured and a part of its supernatant was titrated to pH 7 with 0.1N NaOH using a pH-stat (Radio meter).
The mean dose of the compounds which may reduce the volume of gastric juice (ml) and acidity (mEq/ml) of a group of five animals to 50% of that of the controls were designated respectively as ED50.

gastric acid secretion [2] = test: Inhibiting effect of gastric acid secretion, perfused stomach, pentagastrin-stimulated (Ghosh & Schild); format: in vivo, male SD rat; conditions: urethane-anesthetized SD rat, pentagastrin 0.05 μg/kg/min, injected through femoral vein; ratio of area index to that of PGE2
Method: as §1
A male SD rat was incised in the abdomen under anesthesia by urethane and the lumen of a stomach was perfused with a physiolosical saline solution through a double-cannula inserted into a lumen of the stomach. A pH of a draining gastric acid was monitored using a pH-meter (M. Ghosh, H. Schild, Br. J. Pharmacol. 13, 54 (1958)). The secretion of gastric acid was stimulated by a continuous infusion of the pentagastrin at a rate of 0.05 μg/kg/min. When the pH of gastric acid became stable value of about 4, the compound was injected through a femoral vein. As an index of the inhibiting effect of gastric acid secretion by the compound was calculated from the area surrounded by the curve drawn by the time course of the pH of gastric acid, from the point increase by the injection of the compound and to the point it came back to baseline. The index thus obtained was compared to that of PGE2 and a ratio therebetween was shown in Table 3, as a relative effect of the compound.

platelet aggregation [3] = test: Inhibiting effect of platelet aggregation (ADP-induced, human platelet-rich plasma); format: cell-based; conditions: human PRP, compound added one minute before ADP
Method: Inhibiting effect of platelet aggregation
The blood taken from a human median cubital vein was centrifuged at 800 rpm for 10 min. and a supernatant thereof was used as a platelet-rich plasma (PRP). An aliquot of PRP thus obtained was put into a small tube, to which […] (ADP) was added to induce platelet aggregation. The extent of aggregation was determined by detecting a change in turbidity of the aliquot by an apparatus for measuring platelet aggregation (Rika-Denki, Tokyo). The compound was added one minute before the addition of ADP. The concentration of the compound which may reduce the platelet aggregation, 50% of the control was designated as IC50.

[4] = system: blood pressure of the carotid; test: Hypotensive effect (carotid blood pressure, anesthetized rat); format: in vivo; conditions: chloralose-anesthetized Wistar male rat, injected via catheter connected to femoral artery; read-out: Hypotensive effect ED25 (dose reducing blood pressure by 25 mmHg)
Method: A catheter was inserted to a carotid of the Wistar male rat under chloralose anesthesia. Another end of the catheter was connected to a polygraph with a pressure-transducer to detect a blood pressure of the carotid. The compound was injected via catheter connected to a femoral artery. The dose of the compound which may reduce the blood pressure in an amount of 25 mmHg was designated as ED25.

platelet aggregation [5] = conditions: cited from earlier work
gastric acid secretion [6] = conditions: cited from earlier work
peripheral blood vessel = conditions: cited from earlier work
[7] = converted to 6-oxo PGF1α; cited from earlier work
[8] = cited from earlier work
[9] = acidity (mEq/ml) to 50% of controls, read-out: Inhibiting effect of gastric acid secretion ED50, Acidity
[10] = volume (ml) to 50% of controls, read-out: Inhibiting effect of gastric acid secretion ED50, Volume of the gastric juice

Structure (SMILES)	ED50 (corpus of stomach)	ED50 (gastric acid secretion [1]; [9])	ED50 (gastric acid secretion [1]; [10])	Inhibiting effect of gastric acid secretion, Relative effect (PGE2 = 1) (gastric acid secretion [2])	IC50 (platelet aggregation [3])	ED (25 mmHg) [4]	platelet aggregation-inhibiting activity (platelet aggregation [5])	gastric acid secretion-inhibiting activity (gastric acid secretion [6])	peripheral blood vessel-dilating activity (peripheral blood vessel)	stability in neutral aqueous solutions [7]	duration of physiological activities in vivo [8]	stability in vivo [8]
O=C(O)COc1cccc2c1O[C@H]1C[C@@H](O)[C@H](/C=C/[C@@H](O)C3CCCC3)[C@@H]21 (relative stereo) [Compound 230, 15-cyclopentyl-2,5,6,7,16,17,18,19,20-nonanor-4-oxa-4,8-inter-m-phenylene PGI2]	9.74 µg/kg	880 µg/kg	330 µg/kg	1.4	0.19 ng/mL (≈ 0.507 nM)	0.094 µg/kg	–	–	–	–	–	–
O=C(O)COc1cccc2c1O[C@H]1C[C@@H](O)[C@H](/C=C/[C@@H](O)C3CCCCC3)[C@@H]21 (relative stereo) [Compound 234, 15-cyclohexyl-2,5,6,7,16,17,18,19,20-nonanor-4-oxa-4,8-inter-m-phenylene PGI2]	12.4 µg/kg	880 µg/kg	86 µg/kg	4.1	0.26 ng/mL (≈ 0.669 nM)	0.34 µg/kg	–	–	–	–	–	–
O=C(O)COc1cccc2c1O[C@H]1C[C@@H](O)[C@H](/C=C/[C@@H](O)CC3CCCCC3)[C@@H]21 (relative stereo) [Compound 241, 16-cyclohexyl-2,5,6,7,17,18,19,20-octanor-4-oxa-4,8-inter-m-phenylene PGI2]	8.17 µg/kg	2800 µg/kg	1800 µg/kg	2.1	12 ng/mL (≈ 29.8 nM)	0.083 µg/kg	–	–	–	–	–	–
O=C(O)COc1cccc2c1O[C@H]1C[C@@H](O)[C@H](/C=C/[C@@H](O)CCC3CCCCC3)[C@@H]21 (relative stereo) [Compound 244, 17-cyclohexyl-2,5,6,7,18,19,20-heptanor-4-oxa-4,8-inter-m-phenylene PGI2]	8.52 µg/kg	> 10000 µg/kg	3500 µg/kg	3.9	28 ng/mL (≈ 67.2 nM)	0.47 µg/kg	–	–	–	–	–	–
O=C(O)COc1cccc2c1O[C@H]1C[C@@H](O)[C@H](/C=C/[C@@H](O)c3ccccc3)[C@@H]21 (relative stereo) [Compound 256, 15-phenyl-2,5,6,7,16,17,18,19,20-nonanor-4-oxa-4,8-inter-m-phenylene PGI2]	3.2 µg/kg	110 µg/kg	44 µg/kg	7.8	0.088 ng/mL (≈ 0.23 nM)	0.1 µg/kg	–	–	–	–	–	–
O=C(O)COc1cccc2c1O[C@H]1C[C@@H](O)[C@H](/C=C/[C@@H](O)Cc3ccccc3)[C@@H]21 (relative stereo) [Compound 260, 16-phenyl-2,5,6,7,17,18,19,20-octanor-4-oxa-4,8-inter-m-phenylene PGI2]	51.4 µg/kg	4500 µg/kg	5200 µg/kg	13	3.5 ng/mL (≈ 8.83 nM)	0.98 µg/kg	–	–	–	–	–	–
O=C(O)COc1cccc2c1O[C@H]1C[C@@H](O)[C@H](/C=C/[C@@H](O)CCc3ccccc3)[C@@H]21 (relative stereo) [Compound 263, 17-phenyl-2,5,6,7,18,19,20-heptanor-4-oxa-4,8-inter-m-phenylene PGI2]	13.7 µg/kg	1300 µg/kg	580 µg/kg	42	3.4 ng/mL (≈ 8.28 nM)	0.23 µg/kg	–	–	–	–	–	–
O=C(O)COc1cccc2c1O[C@H]1C[C@@H](O)[C@H](/C=C/[C@@H](O)c3cccc(F)c3)[C@@H]21 (relative stereo) [Compound 274, 15-(m-fluorophenyl)-2,5,6,7,16,17,18,19,20-nonanor-4-oxa-4,8-inter-m-phenylene PGI2]	9.6 µg/kg	880 µg/kg	260 µg/kg	12	1.35 ng/mL (≈ 3.37 nM)	0.053 µg/kg	–	–	–	–	–	–
O=C(O)COc1cccc2c1O[C@H]1C[C@@H](O)[C@H](/C=C/[C@@H](O)c3cccc(C(F)(F)F)c3)[C@@H]21 (relative stereo) [Compound 278, 15-(m-trifluoromethylphenyl)-2,5,6,7,16,17,18,19,20-nonanor-4-oxa-4,8-inter-m-phenylene PGI2]	3.1 µg/kg	1100 µg/kg	630 µg/kg	6.9	0.79 ng/mL (≈ 1.75 nM)	0.11 µg/kg	–	–	–	–	–	–
O=C(O)COc1cccc2c1O[C@H]1C[C@@H](O)[C@H](/C=C/[C@@H](O)c3ccccc3Cl)[C@@H]21 (relative stereo) [Compound 281, 15-(o-chlorophenyl)-2,5,6,7,16,17,18,19,20-nonanor-4-oxa-4,8-inter-m-phenylene PGI2]	2.4 µg/kg	500 µg/kg	460 µg/kg	10	0.82 ng/mL (≈ 1.97 nM)	0.14 µg/kg	–	–	–	–	–	–
O=C(O)COc1cccc2c1O[C@H]1C[C@@H](O)[C@H](/C=C/[C@@H](O)c3cccc(Cl)c3)[C@@H]21 (relative stereo) [Compound 285, 15-(m-chlorophenyl)-2,5,6,7,16,17,18,19,20-nonanor-4-oxa-4,8-inter-m-phenylene PGI2]	3.5 µg/kg	1200 µg/kg	880 µg/kg	4.1	0.23 ng/mL (≈ 0.552 nM)	0.055 µg/kg	–	–	–	–	–	–
O=C(O)COc1cccc2c1O[C@H]1C[C@@H](O)[C@H](/C=C/[C@@H](O)c3ccc(Cl)cc3)[C@@H]21 (relative stereo) [Compound 289, 15-(p-chlorophenyl)-2,5,6,7,16,17,18,19,20-nonanor-4-oxa-4,8-inter-m-phenylene PGI2]	4 µg/kg	970 µg/kg	430 µg/kg	17	0.74 ng/mL (≈ 1.78 nM)	0.084 µg/kg	–	–	–	–	–	–
CCCOCC(C)(C)[C@H](O)/C=C/[C@@H]1[C@H]2c3cccc(OCC(=O)O)c3O[C@H]2C[C@H]1O (relative stereo) [Compound 309, 16,16-Dimethyl-20a-homo-2,5,6,7-tetranor-4,18-dioxa-4,8-inter-m-phenylene PGI2]	7.47 µg/kg	2010 µg/kg	805 µg/kg	33	72 ng/mL (≈ 171 nM)	0.3 µg/kg	–	–	–	–	–	–
CC#CCC(C)[C@H](O)/C=C/[C@@H]1[C@H]2c3cccc(OCC(=O)O)c3O[C@H]2C[C@H]1O (relative stereo) [Compound 321, 16-Methyl-2,5,6,7-tetranor-4-oxa-18,18,19,19-tetradehydro-4,8-inter-m-phenylene PGI2]	0.5 µg/kg	320 µg/kg	120 µg/kg	41	0.33 ng/mL (≈ 0.854 nM)	0.22 µg/kg	–	–	–	–	–	–
CCCCC[C@H](O)/C=C/[C@@H]1[C@H]2C/C(=C/CCCC(=O)O)O[C@H]2C[C@H]1O [PGI2, Prostaglandin I2]	–	–	–	–	–	–	potent	potent	potent	extremely unstable	only short duration	unstable in vivo
